Several values for one entry are separate records, joined by “and”; a condition that tells them apart may be missing. Equal values may be shown once.
Key:
[1] = target: T1, CYP2B6 (Homo sapiens, UniProt P20813); assay: in vitro
T1 sequence (P20813 1-491): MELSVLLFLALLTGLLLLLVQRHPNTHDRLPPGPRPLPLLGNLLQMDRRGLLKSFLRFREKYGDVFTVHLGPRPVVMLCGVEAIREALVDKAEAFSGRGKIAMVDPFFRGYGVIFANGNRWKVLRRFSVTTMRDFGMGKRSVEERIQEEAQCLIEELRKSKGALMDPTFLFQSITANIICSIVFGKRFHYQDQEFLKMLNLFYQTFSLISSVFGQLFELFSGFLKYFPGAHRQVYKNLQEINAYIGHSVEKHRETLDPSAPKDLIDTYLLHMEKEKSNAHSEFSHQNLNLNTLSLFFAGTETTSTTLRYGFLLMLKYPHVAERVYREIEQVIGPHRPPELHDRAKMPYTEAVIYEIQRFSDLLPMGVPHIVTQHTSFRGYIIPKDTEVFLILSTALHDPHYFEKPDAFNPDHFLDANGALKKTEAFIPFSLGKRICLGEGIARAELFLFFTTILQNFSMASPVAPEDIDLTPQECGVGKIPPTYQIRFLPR
Protocol: The CYP reaction was initiated by adding a CYP probe substrate and incubating at 37° C. for 10-20 minutes, depending on the individual CYP isoform. The reaction was terminated with the addition of 400 μL ice-cold acetonitrile (ACN). […] Positive controls were performed in parallel using a known inhibitor of the individual CYP isoform. […] The samples were then transferred to 96-well plates and analyzed by LC-MS/MS (Appendix 1).

[2] = target: T2, USP2a (Homo sapiens, UniProt O75604); assay: 3H-FL118 binding, Nanosep 3K centrifugal device; design: host or cells: HEK293T
T2 sequence (O75604 1-605): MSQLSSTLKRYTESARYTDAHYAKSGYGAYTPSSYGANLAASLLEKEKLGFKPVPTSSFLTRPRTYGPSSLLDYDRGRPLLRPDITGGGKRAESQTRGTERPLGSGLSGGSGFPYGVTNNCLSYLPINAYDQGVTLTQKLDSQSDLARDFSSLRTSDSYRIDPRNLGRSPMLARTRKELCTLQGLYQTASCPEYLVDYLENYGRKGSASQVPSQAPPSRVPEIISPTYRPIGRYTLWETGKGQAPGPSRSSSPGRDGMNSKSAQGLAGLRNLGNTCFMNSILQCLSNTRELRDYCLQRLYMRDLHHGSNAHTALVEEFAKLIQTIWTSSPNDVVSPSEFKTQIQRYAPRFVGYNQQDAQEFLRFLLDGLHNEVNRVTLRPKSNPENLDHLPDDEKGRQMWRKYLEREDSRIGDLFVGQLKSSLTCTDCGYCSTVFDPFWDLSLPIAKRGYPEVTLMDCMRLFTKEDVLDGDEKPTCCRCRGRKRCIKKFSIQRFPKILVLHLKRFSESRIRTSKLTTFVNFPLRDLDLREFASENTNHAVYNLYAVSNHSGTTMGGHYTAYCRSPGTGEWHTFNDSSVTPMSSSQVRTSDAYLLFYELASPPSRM
Protocol: (§1) Then, 5-10 μg of the FLAGR M Purification Kit (Signa)-purified Flag-USP2a and Flag-UbE2T proteins in a volume of 20-50 μL, respectively, was transferred into the sample reservoir of a 1.5 mL Nanosep 3K Centrifugal Device. In parallel, a negative control Nanosep 3K Centrifugal Devices containing 10 μg bovine serum albumin (BSA) in 50 μL volume was also set up. Then, the 3 prepared Nanosep 3K Devices were centrifuged at 10,000 rpm for 10-15 min to eliminate the solution and retain the proteins in the sample reservoir. […] Lastly, all three of the sample reservoir devices were transferred into a scintillation vial containing enough scintillation solution to cover the entire sample reservoir devices for tritium (3H) counting on the LS 6500 Scintillation System (Backman Couler™).

[3] = target: T3, UbE2T (Homo sapiens, UniProt Q9NPD8); assay: 3H-FL118 binding, Nanosep 3K centrifugal device; design: host or cells: HEK293T; settings: hot FL118 solution 10 μM
T3 sequence (Q9NPD8 1-197): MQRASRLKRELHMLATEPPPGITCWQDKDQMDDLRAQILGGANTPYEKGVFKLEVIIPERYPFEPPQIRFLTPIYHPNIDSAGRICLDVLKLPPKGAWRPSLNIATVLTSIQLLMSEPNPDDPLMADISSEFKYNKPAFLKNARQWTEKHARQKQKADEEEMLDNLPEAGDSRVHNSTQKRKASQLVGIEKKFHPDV
Protocol: as §1

[4] = tested on: TA98; assay: Ames Bacterial Reverse Mutation Assay
Protocol: The Ames Bacterial Reverse Mutation (AB™) used five bacterial tester strains (TA97a, TA98, TA100, TA1535, WP2-uvrA).
Tester strains were added to flasks containing nutrient broth and incubated at 37+2° C. overnight. The flasks were removed from the overnight incubation and the final concentration was determined (the OD was measured and determined whether growth was suitable for testing). Top agar was melted, and 2.0 mL was dispensed into heated culture tubes. The S9 mix (metabolic activation) was prepared and stored on ice. […] Each culture tube was vortexed and immediately poured onto the labeled minimal glucose agar plates. All plates were inverted and placed into a 37±1° C. incubator for 48-72 hours. The plates were counted via an automated colony counter or by hand and the background lawn was microscopically evaluated for any signs of toxicity. Genotypic control plates were prepared for each tester strain and incubated for 24-72 hours at 37±1° C.

CCC1(O)C(=O)OCc2c1cc1n(c2=O)Cc2cc3cc4c(cc3nc2-1)OCO4 (stereo not shown) [FL118]
CYP2B6 inhibition ([1]; 1 μM): does not inhibit these 3 CYP isoforms
inhibition at 1 µM ([1]; human, microsomes, pH 7.4): 0%
binding of 3H-FL118 to USP2a and UbE2T versus BSA ([2]; 3H counts per min): 10-20 fold
3H CPM counts in retained parts ([2]; hot FL118 solution 10 μM): 97,436 ± 2960 CPM
3H CPM counts in retained parts [3]: 52,382 ± 1930 CPM
bacterial strain mutation [4]: does not induce
mean revertant colonies over negative control ([4]; +/− S9): less than 2 fold
Background Lawn Code ([4]; TA98, 0.010 μM +S9): 1
Colony Counts Average ([4]; TA98, 0.010 μM +S9): 38
Colony Counts Replicate 1-3 ([4]; TA98, 0.010 μM +S9): 32 and 37 and 45
Background Lawn Code ([4]; TA98, 0.010 μM −S9): 1
Colony Counts Average ([4]; TA98, 0.010 μM −S9): 38
Colony Counts Replicate 1-3 ([4]; TA98, 0.010 μM −S9): 29 and 53 and 32
Background Lawn Code ([4]; TA98, 0.10 μM +S9): 1
Colony Counts Average ([4]; TA98, 0.10 μM +S9): 44
Colony Counts Replicate 1-3 ([4]; TA98, 0.10 μM +S9): 45 and 41 and 46
Background Lawn Code ([4]; TA98, 0.10 μM −S9): 1
Colony Counts Average ([4]; TA98, 0.10 μM −S9): 24
Colony Counts Replicate 1-3 ([4]; TA98, 0.10 μM −S9): 36 and 20 and 15
Background Lawn Code ([4]; TA98, 1.0 μM +S9): 1
Colony Counts Average ([4]; TA98, 1.0 μM +S9): 44
Colony Counts Replicate 1-3 ([4]; TA98, 1.0 μM +S9): 35 and 45 and 52
Background Lawn Code ([4]; TA98, 1.0 μM −S9): 1
Colony Counts Average ([4]; TA98, 1.0 μM −S9): 23
Colony Counts Replicate 1-3 ([4]; TA98, 1.0 μM −S9): 24 and 26 and 19

From patent publication US20250312469A1 (CANGET BIOTEKPHARMA, priority 2024, published 2025)
